Experiment: Cytotoxicity against human HCT116 cells assessed as growth inhibition at 100 uM after 2 days by MTT assay
Type: functional
Conditions: HCT-116, 48 h, read-out: GI
`CNC(=O)c1cc(Oc2ccc3nc(NC(=O)c4ccc(Cl)cc4Cl)sc3c2)ccn1` showed an inhibition of growth at 100 µM of 64.4%. `CNC(=O)c1cc(Oc2ccc3nc(NC(=O)c4cc5ccccc5o4)sc3c2)ccn1` showed an inhibition of growth at 100 µM of 77.5%. Compound `CNC(=O)c1cc(Oc2ccc3nc(NC(=O)Nc4ccc(N5CCOCC5)cc4)sc3c2)ccn1` has an inhibition of growth at 100 µM of 73.3%. Work on `CNC(=O)c1cc(Oc2ccc3nc(NC(=O)Nc4cc(C(F)(F)F)ccc4Cl)sc3c2)ccn1` yielded an inhibition of growth at 100 µM of 90%. Work on `CNC(=O)c1cc(Oc2ccc3nc(NC(=O)Nc4ccc(N5CCN(C)CC5)cc4)sc3c2)ccn1` yielded an inhibition of growth at 100 µM of 95%. `CNC(=O)c1cc(Oc2ccc3nc(NC(=O)Nc4ccc(Cl)cc4Cl)sc3c2)ccn1` gave an inhibition of growth at 100 µM of 93.6%. Compound `CNC(=O)c1cc(Oc2ccc3nc(NC(=O)Nc4ccc(Br)cc4)sc3c2)ccn1` has an inhibition of growth at 100 µM of 80%. `CNC(=O)c1cc(Oc2ccc3nc(NC(=O)c4cc(Cl)cc(Cl)c4)sc3c2)ccn1` showed an inhibition of growth at 100 µM of 15.8%. Work on `CNC(=O)c1cc(Oc2ccc3nc(NC(=O)Nc4ccc(F)cc4)sc3c2)ccn1` yielded an inhibition of growth at 100 µM of 83.8%. With `CNC(=O)c1cc(Oc2ccc3nc(NC(=O)c4ccc(Cl)cc4)sc3c2)ccn1` the inhibition of growth at 100 µM was 80.5%.

Experiment: Cytotoxicity against human HCT116 cells assessed as growth inhibition at 10 uM after 2 days by MTT assay
Type: functional
Conditions: HCT-116, 48 h, read-out: GI
In the case of `CNC(=O)c1cc(Oc2ccc3nc(NC(=O)c4ccc(Cl)cc4Cl)sc3c2)ccn1`, the inhibition of growth at 10 µM was 15.1%. With `CNC(=O)c1cc(Oc2ccc3nc(NC(=O)c4cc5ccccc5o4)sc3c2)ccn1` the inhibition of growth at 10 µM was 9.15%. Work on `CNC(=O)c1cc(Oc2ccc3nc(NC(=O)Nc4ccc(N5CCOCC5)cc4)sc3c2)ccn1` yielded an inhibition of growth at 10 µM of 1.58%. In the case of `CNC(=O)c1cc(Oc2ccc3nc(NC(=O)Nc4cc(C(F)(F)F)ccc4Cl)sc3c2)ccn1`, the inhibition of growth at 10 µM was 16.3%. Compound `CNC(=O)c1cc(Oc2ccc3nc(NC(=O)Nc4ccc(N5CCN(C)CC5)cc4)sc3c2)ccn1` has an inhibition of growth at 10 µM of 24.6%. In the case of `CNC(=O)c1cc(Oc2ccc3nc(NC(=O)Nc4ccc(Cl)cc4Cl)sc3c2)ccn1`, the inhibition of growth at 10 µM was 32.2%. With `CNC(=O)c1cc(Oc2ccc3nc(NC(=O)Nc4ccc(Br)cc4)sc3c2)ccn1` the inhibition of growth at 10 µM was 12.1%. Compound `CNC(=O)c1cc(Oc2ccc3nc(NC(=O)c4cc(Cl)cc(Cl)c4)sc3c2)ccn1` has an inhibition of growth at 10 µM of 13.4%. Compound `CNC(=O)c1cc(Oc2ccc3nc(NC(=O)Nc4ccc(F)cc4)sc3c2)ccn1` has an inhibition of growth at 10 µM of 12.2%. In the case of `CNC(=O)c1cc(Oc2ccc3nc(NC(=O)c4ccc(Cl)cc4)sc3c2)ccn1`, the inhibition of growth at 10 µM was 27.5%.

Experiment: Cytotoxicity against human SKBR3 cells assessed as growth inhibition at 100 uM after 2 days by MTT assay
Type: functional
Conditions: SK-BR-3, 48 h, read-out: GI
`CNC(=O)c1cc(Oc2ccc3nc(NC(=O)c4ccc(Cl)cc4Cl)sc3c2)ccn1` showed an inhibition of growth at 100 µM of 81%. For `CNC(=O)c1cc(Oc2ccc3nc(NC(=O)c4cc5ccccc5o4)sc3c2)ccn1`, the inhibition of growth at 100 µM was 52.4%. For `CNC(=O)c1cc(Oc2ccc3nc(NC(=O)Nc4ccc(N5CCOCC5)cc4)sc3c2)ccn1`, the inhibition of growth at 100 µM was 77.7%. In the case of `CNC(=O)c1cc(Oc2ccc3nc(NC(=O)Nc4cc(C(F)(F)F)ccc4Cl)sc3c2)ccn1`, the inhibition of growth at 100 µM was 89.1%. In the case of `CNC(=O)c1cc(Oc2ccc3nc(NC(=O)Nc4ccc(N5CCN(C)CC5)cc4)sc3c2)ccn1`, the inhibition of growth at 100 µM was 86.4%. With `CNC(=O)c1cc(Oc2ccc3nc(NC(=O)Nc4ccc(Cl)cc4Cl)sc3c2)ccn1` the inhibition of growth at 100 µM was 91.7%. `CNC(=O)c1cc(Oc2ccc3nc(NC(=O)Nc4ccc(Br)cc4)sc3c2)ccn1` showed an inhibition of growth at 100 µM of 69.2%. In the case of `CNC(=O)c1cc(Oc2ccc3nc(NC(=O)c4cc(Cl)cc(Cl)c4)sc3c2)ccn1`, the inhibition of growth at 100 µM was 84.2%. Work on `CNC(=O)c1cc(Oc2ccc3nc(NC(=O)Nc4ccc(F)cc4)sc3c2)ccn1` yielded an inhibition of growth at 100 µM of 72.9%. Work on `CNC(=O)c1cc(Oc2ccc3nc(NC(=O)c4ccc(Cl)cc4)sc3c2)ccn1` yielded an inhibition of growth at 100 µM of 83%.

Experiment: Cytotoxicity against human SKBR3 cells assessed as growth inhibition at 10 uM after 2 days by MTT assay
Type: functional
Conditions: SK-BR-3, 48 h, read-out: GI
Compound `CNC(=O)c1cc(Oc2ccc3nc(NC(=O)c4ccc(Cl)cc4Cl)sc3c2)ccn1` has an inhibition of growth at 10 µM of 14%. In the case of `CNC(=O)c1cc(Oc2ccc3nc(NC(=O)c4cc5ccccc5o4)sc3c2)ccn1`, the inhibition of growth at 10 µM was 54.4%. Compound `CNC(=O)c1cc(Oc2ccc3nc(NC(=O)Nc4ccc(N5CCOCC5)cc4)sc3c2)ccn1` has an inhibition of growth at 10 µM of 14.1%. In the case of `CNC(=O)c1cc(Oc2ccc3nc(NC(=O)Nc4cc(C(F)(F)F)ccc4Cl)sc3c2)ccn1`, the inhibition of growth at 10 µM was 28.3%. In the case of `CNC(=O)c1cc(Oc2ccc3nc(NC(=O)Nc4ccc(N5CCN(C)CC5)cc4)sc3c2)ccn1`, the inhibition of growth at 10 µM was 30.5%. Work on `CNC(=O)c1cc(Oc2ccc3nc(NC(=O)Nc4ccc(Cl)cc4Cl)sc3c2)ccn1` yielded an inhibition of growth at 10 µM of 22.3%. In the case of `CNC(=O)c1cc(Oc2ccc3nc(NC(=O)Nc4ccc(Br)cc4)sc3c2)ccn1`, the inhibition of growth at 10 µM was 26.7%. In the case of `CNC(=O)c1cc(Oc2ccc3nc(NC(=O)c4cc(Cl)cc(Cl)c4)sc3c2)ccn1`, the inhibition of growth at 10 µM was 9.62%. Work on `CNC(=O)c1cc(Oc2ccc3nc(NC(=O)Nc4ccc(F)cc4)sc3c2)ccn1` yielded an inhibition of growth at 10 µM of 14.2%. Compound `CNC(=O)c1cc(Oc2ccc3nc(NC(=O)c4ccc(Cl)cc4)sc3c2)ccn1` has an inhibition of growth at 10 µM of 18.9%.

Source: ChEMBL document CHEMBL3797052 (Eur J Med Chem, 2016)
